# Source: article PMC9081329, “Pharmacokinetics, Mass Balance, Excretion, and Tissue Distribution of Plasmalogen Precursor PPI-1011” (Frontiers in Cell and Developmental Biology, 2022)
# Experiment: Single dose tissue distribution study (QWBA, LSC of blood and plasma)
# Format: in vivo, Sprague-Dawley rats
# Experimental: Six male rats were administered a single oral dose of [^14C]PPI-1011 at 100 mg/kg (200 μCi/kg) and one rat was sacrificed at each of the following time points after the administration of the dose: 8, 12, 18, 24, 48, or 168 h. Terminal blood was collected by cardiac puncture directly into tubes with K2EDTA, an aliquot was stored at 4°C until LSC was performed for radioactivity, while the remaining blood was processed to plasma and stored at −20°C until LSC. Following blood collection, the carcasses were frozen in a cold bath with hexanes and dry ice for at least 8 min and then dried and stored at −70°C for at least 5 h. The carcasses were transferred to a −20°C freezer for at least 12 h before embedding.
# QWBA was used to determine radioactivity concentrations in the caecum (contents and mucosa), large intestine (contents and mucosa), small intestine (contents and mucosa), stomach (contents and mucosa), brain, choroid plexus, spinal cord, bone, skin, adrenal gland, pineal body, pituitary gland, thyroid gland, liver, kidney (cortex, medulla and whole kidney), urinary bladder (contents and wall), brown fat, white fat, eye (lens, uveal tract and whole eye), epididymis, prostate gland, testis, ovary, uterus, lung, exorbital lachrymal gland, Harderian gland, pancreas, salivary gland, skeletal muscle, myocardium, cardiac blood, bone marrow, lymph node, spleen, and thymus. As well, LSC was used to determine the total radioactivity in the whole blood and plasma.
# The whole-body cryosectioning technique described by ([Ullberg, 1977]) was the basis for embedding and cryosectioning the rats assigned to this study. Each frozen carcass was shaved, and then the limbs and tail were removed prior to embedding. Chilled (4°C) 3% CMC (low viscosity) was utilized to provide a firm support of reinforced ice around each rat and for a secure attachment to the microtome stage. Upon thorough freezing of the embedding medium surrounding each rat, the frozen CMC block was removed from the freezing bath and four 3/8 inch holes were drilled into the block. One cryosection quality control standard (CQCS) was prepared with a known amount of radioactivity and at least 1 ml aliquots were added to each of the four drilled holes. CQCS data were utilized to evaluate the overall performance of the QWBA assay.
# Each frozen rat was sagittally trimmed (50–100 μm) at −20°C until exposure of a few target tissues employing a Leica Cryomacrocut heavy-duty microtome (Leica Microsystems Inc.,). Disposable stainless steel Feather type H45L knives (Feather Safety Razor Co., Ltd.) were utilized for trimming and sectioning each frozen rat. Several thinner sections (50 μm) were discarded prior to obtaining multiple 50 μm sections at various cryosectioning levels for QWBA analysis. Upon the collection of at least 60 target tissues in multiple cryosectioning levels, the cryosections were kept in the Cryomacrocut cryochamber for a minimum of 18 h for dehydration depending upon the number of cryosections within the cryochamber. After dehydration was complete, the cryosections were transferred to ambient temperature for processing. Mounted whole-body cryosections and a set of 15 standards were sandwiched between a standard phosphor screen and an exposure cassette. All cryosections were exposed to the phosphor screen for 4-days in a cabinet protected with lead prior to scanning using a Typhoon PhosphorImager (Cytiva). MCID™ Analysis software (InterFocus Ltd.) was utilized to generate a calibration curve of the STD nominal concentrations (nCi/g) versus PhosphorImager response (counts/μm^2 minus background) by weighted (1/x) linear regression analysis ([Potchoiba et al., 1995]; [Potchoiba et al., 1998]). The linear regression curve was then utilized to determine the concentration (nCi/g) of total radioactivity in whole-body tissues and blood. Radioactivity concentrations were expressed as μg Eq/g based on the specific activity of the compound in the final dose formulations. […]
# [1] = 12 h post single oral 100 mg/kg
compound,measurement,setting,value
CC/C=C\C/C=C\C/C=C\C/C=C\C/C=C\C/C=C\CCC(=O)O[C@H](CO[14CH2]CCCCCCCCCCCCCCC)COC(=O)CCCCC1CCSS1 (stereo partly shown) [[^14C]PPI-1011],Blood:plasma concentration ratio,"168 HPD, single dose",2.96
same,"Radioactivity concentration, Adipose - Brown",8 h post single oral 100 mg/kg,171 μg equivalents/g
same,"Radioactivity concentration, Adipose - Brown (Vessel Wall)",8 h post single oral 100 mg/kg,301 μg equivalents/g
same,"Radioactivity concentration, Adipose - Subcutaneous",8 h post single oral 100 mg/kg,74.0 μg equivalents/g
same,"Radioactivity concentration, Adipose - Visceral",8 h post single oral 100 mg/kg,83.1 μg equivalents/g
same,"Radioactivity concentration, Adrenal Gland",8 h post single oral 100 mg/kg,195 μg equivalents/g
same,"Radioactivity concentration, Bladder Wall",8 h post single oral 100 mg/kg,86.0 μg equivalents/g
same,"Radioactivity concentration, Blood - QWBA",8 h post single oral 100 mg/kg,35.4 μg equivalents/g
same,"Radioactivity concentration, Bone Marrow",8 h post single oral 100 mg/kg,23.5 μg equivalents/g
same,"Radioactivity concentration, Bone Surface",8 h post single oral 100 mg/kg,2.30 μg equivalents/g
same,"Radioactivity concentration, Cerebellum",8 h post single oral 100 mg/kg,2.70 μg equivalents/g
same,"Radioactivity concentration, Cerebrum",8 h post single oral 100 mg/kg,2.39 μg equivalents/g
same,"Radioactivity concentration, Choroid Plexus",8 h post single oral 100 mg/kg,14.9 μg equivalents/g
same,"Radioactivity concentration, Colliculus",8 h post single oral 100 mg/kg,3.50 μg equivalents/g
same,"Radioactivity concentration, Diaphragm",8 h post single oral 100 mg/kg,55.6 μg equivalents/g
same,"Radioactivity concentration, Epididymis",8 h post single oral 100 mg/kg,39.8 μg equivalents/g
same,"Radioactivity concentration, Esophagus",8 h post single oral 100 mg/kg,17.4 μg equivalents/g
same,"Radioactivity concentration, Exorbital Lacrimal Gland",8 h post single oral 100 mg/kg,28.7 μg equivalents/g
same,"Radioactivity concentration, Gastric Mucosa",8 h post single oral 100 mg/kg,91.2 μg equivalents/g
same,"Radioactivity concentration, Harderian Gland",8 h post single oral 100 mg/kg,14.4 μg equivalents/g
same,"Radioactivity concentration, Intra-Orbital Lacrimal Gland",8 h post single oral 100 mg/kg,10.4 μg equivalents/g
same,"Radioactivity concentration, Kidney",8 h post single oral 100 mg/kg,42.9 μg equivalents/g
same,"Radioactivity concentration, Large Intestines",8 h post single oral 100 mg/kg,12.5 μg equivalents/g
same,"Radioactivity concentration, Liver",8 h post single oral 100 mg/kg,313 μg equivalents/g
same,"Radioactivity concentration, Lung",8 h post single oral 100 mg/kg,74.0 μg equivalents/g
same,"Radioactivity concentration, Lymph Node",8 h post single oral 100 mg/kg,22.7 μg equivalents/g
same,"Radioactivity concentration, Medulla Oblongata",8 h post single oral 100 mg/kg,2.40 μg equivalents/g
same,"Radioactivity concentration, Muscle",8 h post single oral 100 mg/kg,10.3 μg equivalents/g
same,"Radioactivity concentration, Myocardium",8 h post single oral 100 mg/kg,92.0 μg equivalents/g
same,"Radioactivity concentration, Nasal Turbinates",8 h post single oral 100 mg/kg,16.0 μg equivalents/g
same,"Radioactivity concentration, Ocular - Uveal Tract",8 h post single oral 100 mg/kg,6.97 μg equivalents/g
same,"Radioactivity concentration, Ocular - Whole Eye",8 h post single oral 100 mg/kg,1.83 μg equivalents/g
same,"Radioactivity concentration, Olfactory Bulb",8 h post single oral 100 mg/kg,2.16 μg equivalents/g
same,"Radioactivity concentration, Pancreas",8 h post single oral 100 mg/kg,66.3 μg equivalents/g
same,"Radioactivity concentration, Parotid Gland",8 h post single oral 100 mg/kg,39.1 μg equivalents/g
same,"Radioactivity concentration, Pineal Gland",8 h post single oral 100 mg/kg,11.9 μg equivalents/g
same,"Radioactivity concentration, Pituitary Gland",8 h post single oral 100 mg/kg,21.2 μg equivalents/g
same,"Radioactivity concentration, Preputial Gland",8 h post single oral 100 mg/kg,33.6 μg equivalents/g
same,"Radioactivity concentration, Prostate",8 h post single oral 100 mg/kg,49.6 μg equivalents/g
same,"Radioactivity concentration, Renal Cortex",8 h post single oral 100 mg/kg,41.4 μg equivalents/g
same,"Radioactivity concentration, Renal Medulla",8 h post single oral 100 mg/kg,51.0 μg equivalents/g
same,"Radioactivity concentration, Salivary Gland",8 h post single oral 100 mg/kg,53.3 μg equivalents/g
same,"Radioactivity concentration, Seminal Vesicles",8 h post single oral 100 mg/kg,12.8 μg equivalents/g
same,"Radioactivity concentration, Skin - Non-Pigmented",8 h post single oral 100 mg/kg,15.0 μg equivalents/g
same,"Radioactivity concentration, Small Intestines",8 h post single oral 100 mg/kg,609 μg equivalents/g
same,"Radioactivity concentration, Spinal Cord",8 h post single oral 100 mg/kg,2.71 μg equivalents/g
same,"Radioactivity concentration, Spleen",8 h post single oral 100 mg/kg,105 μg equivalents/g
same,"Radioactivity concentration, Stomach",8 h post single oral 100 mg/kg,22.6 μg equivalents/g
same,"Radioactivity concentration, Testis",8 h post single oral 100 mg/kg,2.65 μg equivalents/g
same,"Radioactivity concentration, Thalamus",8 h post single oral 100 mg/kg,2.27 μg equivalents/g
same,"Radioactivity concentration, Thymus",8 h post single oral 100 mg/kg,10.7 μg equivalents/g
same,"Radioactivity concentration, Thyroid",8 h post single oral 100 mg/kg,49.9 μg equivalents/g
same,"Radioactivity concentration, Whole Brain",8 h post single oral 100 mg/kg,2.60 μg equivalents/g
same,"Radioactivity concentration, Adipose - Brown",[1],426 μg equivalents/g
same,"Radioactivity concentration, Adipose - Brown (Vessel Wall)",[1],383 μg equivalents/g
same,"Radioactivity concentration, Adipose - Subcutaneous",[1],242 μg equivalents/g
same,"Radioactivity concentration, Adipose - Visceral",[1],170 μg equivalents/g
same,"Radioactivity concentration, Adrenal Gland",[1],367 μg equivalents/g
same,"Radioactivity concentration, Bladder Wall",[1],19.3 μg equivalents/g
same,"Radioactivity concentration, Blood - QWBA",[1],16.4 μg equivalents/g
same,"Radioactivity concentration, Bone Marrow",[1],23.0 μg equivalents/g
same,"Radioactivity concentration, Bone Surface",[1],1.15 μg equivalents/g
same,"Radioactivity concentration, Cecum",[1],450 μg equivalents/g
same,"Radioactivity concentration, Cerebellum",[1],2.69 μg equivalents/g
same,"Radioactivity concentration, Cerebrum",[1],2.22 μg equivalents/g
same,"Radioactivity concentration, Choroid Plexus",[1],17.1 μg equivalents/g
same,"Radioactivity concentration, Colliculus",[1],3.03 μg equivalents/g
same,"Radioactivity concentration, Diaphragm",[1],59.9 μg equivalents/g
same,"Radioactivity concentration, Epididymis",[1],70.9 μg equivalents/g
same,"Radioactivity concentration, Esophagus",[1],16.9 μg equivalents/g
same,"Radioactivity concentration, Exorbital Lacrimal Gland",[1],34.5 μg equivalents/g
same,"Radioactivity concentration, Gastric Mucosa",[1],67.8 μg equivalents/g
same,"Radioactivity concentration, Harderian Gland",[1],10.8 μg equivalents/g
same,"Radioactivity concentration, Intra-Orbital Lacrimal Gland",[1],8.89 μg equivalents/g
same,"Radioactivity concentration, Kidney",[1],45.3 μg equivalents/g
same,"Radioactivity concentration, Large Intestines",[1],209 μg equivalents/g
same,"Radioactivity concentration, Liver",[1],269 μg equivalents/g
same,"Radioactivity concentration, Lung",[1],51.9 μg equivalents/g
same,"Radioactivity concentration, Lymph Node",[1],22.6 μg equivalents/g
same,"Radioactivity concentration, Medulla Oblongata",[1],2.44 μg equivalents/g
same,"Radioactivity concentration, Muscle",[1],12.6 μg equivalents/g
same,"Radioactivity concentration, Myocardium",[1],72.6 μg equivalents/g
same,"Radioactivity concentration, Nasal Turbinates",[1],10.6 μg equivalents/g
same,"Radioactivity concentration, Ocular - Uveal Tract",[1],6.57 μg equivalents/g
same,"Radioactivity concentration, Ocular - Whole Eye",[1],2.03 μg equivalents/g
